Test results as given in patent US20260167622A1, “PAN-KRAS DEGRADING AGENT, AND PREPARATION METHOD THEREFOR AND USE THEREOF” (LEADINGTAC PHARMACEUTICAL (SHAOXING) CO., LTD., priority 2022, published 2026).
pIC50: −log10 of the molar value.

Experiments:
Type in all cases: cell-based
[1] = biological target: T1, KRAS G12V protein in SW900 cells (Homo sapiens, UniProt P01116, G12V); test: KRAS degradation assay (Western Blot) in SW900 cells; conditions: 24 h
T1 construct: endogenous in cells; host or cells: SW900
T1 sequence (P01116 1-188 isoform P01116-2 G12V): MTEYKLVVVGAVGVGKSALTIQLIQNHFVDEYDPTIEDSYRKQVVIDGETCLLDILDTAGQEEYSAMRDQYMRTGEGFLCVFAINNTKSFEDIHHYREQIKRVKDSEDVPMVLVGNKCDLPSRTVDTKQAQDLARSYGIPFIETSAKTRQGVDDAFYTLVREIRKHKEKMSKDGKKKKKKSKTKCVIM
From the text: (§1) Test Example 5: KRAS G12C, KRAS G12D, KRAS G12V, KRAS G13D, and KRAS WT (Expanded) Degradation Assays
(§2) The degradation effect of the compounds on KRAS was investigated on KRAS G12C mutant human non-small cell lung cancer cell NCI-H358, KRAS G12D mutant human metastatic pancreatic cancer cell AsPc-1, KRAS G12D mutant human lung cancer cell A427, KRAS G12V mutant human colorectal cancer cell SW620, KRAS G12V mutant human lung cancer cell SW900, KRAS G13D mutant human colorectal cancer epithelial cell DLD-1, and KRAS WT human gastric cancer cell MKN-1. The specific procedures were as follows: 0.95 mL of cells were seeded into each well of a 24-well cell culture plate to achieve a cell density of 5×10^5 cells/well; and the cell plate was incubated in an incubator at 37° C. with 5% CO2 overnight. Then 50 μL of the compound solution after dilution was added to each of the wells with the corresponding cells, so that the final concentration of the compound was in a range of 0.03-3000 nM. The final concentration of DMSO was 0.25%. After the compounds were added, the cell plate was incubated in an incubator at 37° C. with 5% CO2 for 24 h. The culture medium in the 24-well cell culture plate was then removed, and the plate was washed twice with 1×PBS (KeyGEN). 120 μL of RIPA (strong) lysis buffer (Beyotime) (supplemented with 1 mM phenylmethylsulfonyl fluoride, a protease inhibitor mixture (Beyotime), and a protease phosphatase inhibitor mixture (Beyotime)) was added to lyse adherent SW900 cells at the bottom of the cell culture plate. After the plate was left to stand on ice for 30 min, the protein lysate in each well was transferred to a 1.5 mL centrifuge tube and centrifuged at 15000 g for 20 min at 4° C. The cell lysate supernatants after centrifugation were cryopreserved in a refrigerator at −80° C. for later use.
(§3) After the samples of the cell lysate supernatants that had been prepared were thawed from the refrigerator at −80° C., the total protein concentrations of the cell lysates were determined using a BCA protein quantification kit (Tiangen). The total protein concentrations of the samples were then adjusted to 0.5 μg/μL with PBS and 5×SDS-PAGE protein loading buffer (Beyotime), and the samples were incubated in a water bath at 100° C. for 15 min. The samples were then incubated in an ice bath for 5 min and centrifuged at 14000 g for 1 min at 4° C., and the supernatants were mixed well as loading samples for the Western Blot assay. The samples were loaded into wells of a 10% precast gel (KeyGEN) with a loading volume of 10 μL (total protein: 5 μg), a sufficient Tris-MOPS-SDS running buffer (Adamas) was added, and then electrophoresis was performed at a constant voltage of 120 V for 55 min. After the electrophoresis, the proteins on the gel were transferred to PVDF membranes at a constant current of 250 mA for 55 min. After the membrane transfer, the PVDF membranes were incubated in 1× Quick Block blocking buffer (Beyotime)at room temperature for 30 min. After the blocking, the PVDF membranes were separately incubated at 4° C. overnight with the KRAS antibody (Abcam) diluted in a ratio of 1:1000 and the β-actin antibody (Abcam) diluted in a ratio of 1:2000 in 5% BSA as the diluent, and then washed with 1×TBST buffer (2.4 g of Tris, 8.8 g of NaCl, 1.5 mL of Tween 20, with pH adjusted to 7.4, with the volume brought to 1 L) 3 times for 10 min/time. The membranes were incubated with a secondary antibody (Abcam) diluted in 5% BSA at room temperature for 2 h, and then washed with 1×TBST buffer 3 times for 10 min/time. Finally, the membranes were incubated with Clarity Western ECL Substrate (BIO-RAD) for 5 min for luminescence and color development, and a ChemiScope 6200 Touch chemiluminescence imaging system (Clinx) was used for color development and protein mapping. Gray value analysis of the protein maps was performed using the chemiluminescence analysis software (Clinx). […]

[2] = test system: KRAS G12D mutant human gastric cancer cell AGS; test: 3D cell proliferation inhibition assay, AGS; conditions: 168 h, 3D culture, 7 days, CTG
From the text: (§4) Test Example 6: 3D Cell Proliferation Inhibition Assay
(§5) The inhibitory effects of the compounds on 3D cell proliferation were investigated on KRAS G12C mutant human non-small cell lung cancer cell NCI-H358, KRAS G12D mutant human lung cancer cell A427, KRAS G12D mutant human gastric cancer cell AGS, KRAS G12D mutant human metastatic pancreatic cancer cell AsPc-1, KRAS G12V mutant human lung squamous carcinoma cell SW900, KRAS G12V mutant human colorectal cancer cell SW620, KRAS G13D mutant human colorectal cancer epithelial cell DLD-1, and KRAS WT human gastric cancer cell MKN1. The specific procedures were as follows:
(§6) 10 μL of each compound solution diluted in a gradient was added to corresponding wells of a 96-well low-adsorption microplate (PerkinElmer), so that the final concentrations of the test compounds in the reaction system were in a range of 10000-0.026 nM. The final concentration of DMSO was 0.2%. Then 90 µL of cells were correspondingly seeded into each well to achieve a cell density of 5×10^2 cells/well (the cell density of SW900 was 5×10^3 cells/well, and the cell density of MKN1 was 1×10^3 cells/well). In addition to test wells for the test compounds, both a DMSO control well and a medium control well were set, with the DMSO control well containing DMSO and cells and the medium well containing only a medium. After the sample loading, the 96-well low-adsorption microplate was incubated in an incubator at 37° C. with […] for 7 days. After 7 days, the microplate was taken out, and 100 μL of CTG reagent (Promega) was added to each well. The plate was incubated at room temperature for 60 m and read on a microplate reader EnVision by the chemiluminescence program. The inhibition rates of the compounds at each concentration were calculated using the formula for the percentage inhibition of cell proliferation: inhibition rate 00=(mean value of DMSO control group−single concentration reading value of compound)/(mean value of DMSO control group−mean value of medium control group)×100. Then non-linear curve fillings for logarithmic concentration-inhibition rate were performed by GraphPad Prism 8, and the IC50 values of the compounds were obtained (Table 6).

[3] = test system: KRAS G12D mutant human metastatic pancreatic cancer cell AsPc-1; test: 3D cell proliferation inhibition assay, AsPc-1; conditions: ASPC1, 168 h, 3D culture, 7 days, CTG
From the text: as §4, §5, §6

[4] = test system: KRAS G12C mutant human non-small cell lung cancer cell NCI-H358; test: 3D cell proliferation inhibition assay, NCI-H358; conditions: NCI-H358, 168 h, 3D culture, 7 days, CTG
From the text: as §4, §5, §6

[5] = test system: KRAS G12V mutant human lung squamous carcinoma cell SW900; test: 3D cell proliferation inhibition assay, SW900; conditions: SW900, 168 h, 3D culture, 7 days, CTG
From the text: as §4, §5, §6

[6] = test system: KRAS G12V mutant human colorectal cancer cell SW620; test: 3D cell proliferation inhibition assay, SW620; conditions: SW-620, 168 h, 3D culture, 7 days, CTG
From the text: as §4, §5, §6

[7] = test system: KRAS G13D mutant human colorectal cancer epithelial cell DLD-1; test: 3D cell proliferation inhibition assay, DLD-1; conditions: DLD-1, 168 h, 3D culture, 7 days, CTG
From the text: as §4, §5, §6

[8] = test system: KRAS WT human gastric cancer cell MKN1; test: 3D cell proliferation inhibition assay, MKN1; conditions: MKN-1, 168 h, 3D culture, 7 days, CTG
From the text: as §4, §5, §6

[9] = biological target: T2, KRAS G12V protein in SW620 cells (Homo sapiens, UniProt P01116, G12V); test: KRAS degradation assay (Western Blot) in SW620 cells
T2 construct: endogenous in cells; host or cells: SW620
T2 sequence (P01116 1-188 isoform P01116-2 G12V): as above
From the text: as §1, §2, §3

[10] = biological target: T3, KRAS G13D protein in DLD-1 cells (Homo sapiens, UniProt P01116, G13D); test: KRAS degradation assay (Western Blot) in DLD-1 cells; conditions: 24 h
T3 construct: endogenous in cells; host or cells: DLD-1
T3 sequence (P01116 1-188 isoform P01116-2 G13D): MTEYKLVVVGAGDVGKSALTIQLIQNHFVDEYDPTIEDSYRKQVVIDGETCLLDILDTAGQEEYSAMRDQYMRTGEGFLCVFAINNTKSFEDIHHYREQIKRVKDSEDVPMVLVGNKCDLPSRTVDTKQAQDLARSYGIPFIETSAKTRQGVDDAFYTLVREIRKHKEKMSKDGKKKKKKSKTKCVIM
From the text: as §1, §2, §3

| DC50 [1] [nM] | Dmax [1] [%] | pIC50 [2] | pIC50 [3] | pIC50 [4] | pIC50 [5] | pIC50 [6] | pIC50 [7] | pIC50 [8] | DC50 ([9]; 24 h) [nM] | Dmax ([9]; SW-620, 24 h) [%] | DC50 [10] [nM] | Dmax [10] [%] | SMILES |
| --- | --- | --- | --- | --- | --- | --- | --- | --- | --- | --- | --- | --- | --- |
| ≤ 50 | 80 to 100 | 7.16 | 7.19 | 7.63 | 7.33 | 7.91 | 7.20 | 8.26 |  |  |  |  | CCc1cccc2cc(O)cc(-c3ccc4c(N5CCC[C@@](C)(O)C5)nc(OCC5(CN6CCN(CC7CCC8(CC7)CCN(C(=O)c7ccc(OC)c(N9CCC(=O)NC9=O)c7)CC8)CC6)CC5)nc4c3F)c12 [Example 23, (R)-1-(5-(9-((4-((1-(((7-(8-ethyl-3-hydroxynaphthalen-1-yl)-8-fluoro-4-(3-hydroxy-3-methylpiperidin-1-yl)quinazolin-2-yl)oxy)methyl)cyclopropyl)methyl)piperazin-1-yl)methyl)-3-azaspiro[5.5]undecane-3-carbonyl)-2-methoxyphenyl)dihydropyrimidine-2,4(1H,3H)-dione] |
| ≤ 50 | 80 to 100 |  | ≥ 7.30 | ≥ 7.30 | ≥ 7.30 | 8.46 |  | ≥ 7.30 |  |  |  |  | C#Cc1cccc2cc(O)cc(-c3ncc4c(N5CCC[C@@](C)(O)C5)nc(OCC5(CN6CCN(CC7CCC8(CC7)CCN(C(=O)c7ccc(C)c(N9CCC(=O)NC9=O)c7)CC8)CC6)CC5)nc4c3F)c12 [Example 27, (R)-1-(5-(9-((4-((1-(((7-(8-ethynyl-3-hydroxynaphthalen-1-yl)-8-fluoro-4-(3-hydroxy-3-methylpiperidin-1l-yl)pyrido[4,3-d]pyrimidin-2-yl)oxy)methyl)cyclopropyl)methyl)piperazin-1-yl)methyl)-3-azaspiro[5.5]undecane-3-carbonyl)-2-methylphenyl)dihydropyrimidine-2,4(1H,3H)-dione] |
| ≤ 50 | 80 to 100 |  | 7.00 to 7.30 |  | ≥ 7.30 | 8.04 |  | ≥ 7.30 |  |  |  |  | C#Cc1c(F)ccc2cc(O)cc(-c3ccc4c(N5CCC[C@@](C)(O)C5)nc(OCC5(CN6CCN(CC7CCC8(CC7)CCN(C(=O)c7ccc(C)c(N9CCC(=O)NC9=O)c7)CC8)CC6)CC5)nc4c3F)c12 [Example 41, (R)-1-(5-(9-((4-((1-(((7-(8-ethynyl-7-fluoro-3-hydroxynaphthalen-1-yl)-8-fluoro-4-(3-hydroxy-3-methylpiperidin-1-yl)quinazolin-2-yl)oxy)methyl)cyclopropyl)methyl)piperazin-1-yl)methyl)-3-azaspiro[5.5]undecane-3-carbonyl)-2-methylphenyl)dihydropyrimidine-2,4(1H,3H)-dione] |
|  |  |  | 7.62 | 8.25 |  | 8.53 | 8.25 | 8.04 | 6.73 | 98.9 | 7.28 | 100 | C#Cc1c(F)ccc2cc(O)cc(-c3ncc4c(N5CCC[C@@](C)(O)C5)nc(OC[C@H](C)CN5CCN(CC6CCC7(CC6)CCN(C(=O)c6ccc(CC)c(N8CCC(=O)NC8=O)c6)CC7)CC5)nc4c3F)c12 [Example 133, 1-(2-ethyl-5-(9-((4-((R)-3-((7-(8-ethynyl-7-fluoro-3-hydroxynaphthalen-1-yl)-8-fluoro-4-((R)-3-hydroxy-3-methylpiperidin-1-yl)pyrido[4,3-d]pyrimidin-2-yl)oxy)-2-methylpropyl)piperazin-1-yl)methyl)-3-azaspiro[5.5]undecane-3-carbonyl)phenyl)dihydropyrimidine-2,4(1H,3H)-dione] |
